SMILES strings stand for the structures.

Experiment [1] concerns the target T1, Peroxisome proliferator-activated receptor gamma (Homo sapiens) (UniProt P37231).
T1 sequence (whole entry): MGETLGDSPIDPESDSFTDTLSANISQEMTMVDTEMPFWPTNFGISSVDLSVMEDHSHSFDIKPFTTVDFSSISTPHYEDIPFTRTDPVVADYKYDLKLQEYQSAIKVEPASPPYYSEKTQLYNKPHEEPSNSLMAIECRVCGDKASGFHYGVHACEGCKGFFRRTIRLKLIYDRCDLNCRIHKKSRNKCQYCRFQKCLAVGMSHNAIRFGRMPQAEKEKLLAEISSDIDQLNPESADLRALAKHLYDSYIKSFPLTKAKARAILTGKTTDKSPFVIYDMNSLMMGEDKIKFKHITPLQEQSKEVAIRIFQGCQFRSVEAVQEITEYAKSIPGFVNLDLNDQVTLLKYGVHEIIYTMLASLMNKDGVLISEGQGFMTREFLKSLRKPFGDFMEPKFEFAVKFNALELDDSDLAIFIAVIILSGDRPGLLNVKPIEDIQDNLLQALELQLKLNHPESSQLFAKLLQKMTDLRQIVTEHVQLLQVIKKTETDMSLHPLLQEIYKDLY
The experiment in a line: Agonist activity at PPARgamma (unknown origin) transfected in HEK293 cells assessed as transcriptional activity at 10 uM relative to rosiglitazone. Type of experiment: cell-based.

The test system of experiment [2] is 3T3-L1. The experiment in a line: Induction of insulin-stimulated [14C]deoxy-glucose uptake in mouse 3T3L1 cells pretreated at 10 uM for 24 hrs before insulin stimulation by scintillation counting relative to vehicle-treated control. Type of experiment: functional.
Experiment [3] concerns the target T1, Peroxisome proliferator-activated receptor gamma (Homo sapiens). Description: Binding affinity to PPARgamma (unknown origin) at 10 uM by Polarscreen competitor assay relative to rosiglitazone.
The subject of experiment [4] is 3T3-L1. The experiment in a line: Induction of adipogenesis in mouse 3T3L1 cells at 20 ug/ml by microscopic analysis relative to rosiglitazone. Format: functional.

Take `N#Cc1ccc(S(=O)(=O)Nc2cnc(OC3CCN(c4ccccc4)CC3)c(Cl)c2)cc1`: in experiment [1], the Emax amounted to 11%. Besides, in the experiment with 3T3-L1 [2], the “fold change (FC)” value is 1.07. The compound also returned an Imax in experiment [3] of 37%. For the same compound, in the experiment with 3T3-L1 [4], the Emax at 20 µg/mL was determined as 20%.
For `O=S(=O)(Nc1cnc(OC2CCN(c3ccccc3)CC2)c(Cl)c1)c1ccc(F)cc1F`, in that order: 12%, 1.12, 78% and 21%.
For `COc1ccc(S(=O)(=O)Nc2cnc(OC3CCN(c4ccccc4)CC3)c(Cl)c2)c(OC)c1`, in that order: 17%, 1.44, 51% and 20%.
For `CN(CCOc1ncc(NS(=O)(=O)c2ccc(Cl)cc2Cl)cc1Cl)c1nc2ccccc2o1`, in that order: 16%, 1.12, 82% and 22%.
In the case of `O=S(=O)(Nc1cnc(OC2CCN(c3ccccc3)CC2)c(Cl)c1)c1ccc(Cl)cc1Cl`, in experiment [1], the Emax came out at 14%. In the experiment with 3T3-L1 [2], the “fold change (FC)” value came out at 1.26. This compound also returned an Imax in experiment [3] of 79%. In the experiment with 3T3-L1 [4], this compound showed an Emax at 20 µg/mL of 18%.
For `COc1ccc(S(=O)(=O)Nc2cnc(OC3CCN(c4ccccc4)CC3)c(Cl)c2)cc1`, in that order: 15%, 1.12, 47% and 30%.
For `Cc1ccccc1S(=O)(=O)Nc1cnc(OC2CCN(c3ccccc3)CC2)c(Cl)c1`, in that order: 12%, 0.97, 72% and 22%.
For `O=S(=O)(Nc1cnc(OC2CCN(c3ccccc3)CC2)c(Cl)c1)c1ccc(F)c(Cl)c1`, in that order: 10%, 0.98, 79% and 20%.
Consider `CN(CCOc1ccc(NS(=O)(=O)c2ccc(Cl)c(Cl)c2)cn1)c1nc2ccccc2o1`, for which the Emax in experiment [1] stood at 14%. Moreover, the “fold change (FC)” value in the experiment on 3T3-L1 [2] worked out at 1.02. In experiment [3], this compound displayed an Imax of 78%. This compound also registered an Emax at 20 µg/mL in the experiment with 3T3-L1 [4] of 20%.
For `O=S(=O)(Nc1cnc(OC2CCN(c3ccccc3)CC2)c(Cl)c1)c1ccc(-c2ccccn2)s1`, in experiment [1], the Emax was 13%. Moreover, in the experiment on 3T3-L1 [2], the “fold change (FC)” value was 0.93. Besides, in experiment [3], the Imax turned out to be 76%. This compound also registered an Emax at 20 µg/mL in the experiment with 3T3-L1 [4] of 15%.
For `O=S(=O)(Nc1cnc(OC2CCN(c3ccccc3)CC2)c(Cl)c1)c1ccc(C(F)(F)F)cc1`, in that order: 14%, 0.99, 98% and 20%.
